Data: PubChem BioAssay AID1963865 (Molecular Pharmacology Branch, DTP, NCI, 2024)

System: KRAS PDC multicell spheroid viability
Test: Anticancer human tumor 825966-067-R-J1-PDC patient-derived colon carcinoma cell line growth inhibition [KRAS2]
Conditions: for IC50: curve of first compound; for viability, T/C: stronger effect = lower value
Summary of the method: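 Combination screen of spheroid viability in tumor-cell co-cultures with endothelial (HUVEC) and mesenchymal stem cell stroma. Each agent was tested in half-log dilutions, topping at clinical Cmax or at 10 microM without a known Cmax.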

[1] = second compound 0.1 µM, first compound 0.000316 µM
[2] = second compound 0.1 µM, first compound 0.001 µM
[3] = second compound 0.1 µM, first compound 0.00316 µM
[4] = second compound 0.1 µM, first compound 0.01 µM
[5] = second compound 0.1 µM, first compound 0.0316 µM
[6] = second compound 0.316 µM, first compound 0.000316 µM
[7] = second compound 0.316 µM, first compound 0.001 µM
[8] = second compound 0.316 µM, first compound 0.00316 µM
[9] = second compound 0.316 µM, first compound 0.01 µM
[10] = second compound 0.316 µM, first compound 0.0316 µM
[11] = second compound 1 µM, first compound 0.000316 µM
[12] = second compound 1 µM, first compound 0.001 µM
[13] = second compound 1 µM, first compound 0.00316 µM
[14] = second compound 1 µM, first compound 0.01 µM
[15] = second compound 1 µM, first compound 0.0316 µM
[16] = second compound 3.16 µM, first compound 0.000316 µM
[17] = second compound 3.16 µM, first compound 0.001 µM
[18] = second compound 3.16 µM, first compound 0.00316 µM
[19] = second compound 3.16 µM, first compound 0.01 µM
[20] = second compound 3.16 µM, first compound 0.0316 µM
[21] = second compound 10 µM, first compound 0.000316 µM
[22] = second compound 10 µM, first compound 0.001 µM
[23] = second compound 10 µM, first compound 0.00316 µM
[24] = second compound 10 µM, first compound 0.01 µM
[25] = second compound 10 µM, first compound 0.0316 µM
[26] = second compound 0.1 µM, first compound 0.1 µM
[27] = second compound 0.1 µM, first compound 0.316 µM
[28] = second compound 0.1 µM, first compound 1 µM
[29] = second compound 0.1 µM, first compound 3.16 µM
[30] = second compound 0.316 µM, first compound 0.1 µM
[31] = second compound 0.316 µM, first compound 0.316 µM
[32] = second compound 0.316 µM, first compound 1 µM
[33] = second compound 0.316 µM, first compound 3.16 µM
[34] = second compound 1 µM, first compound 0.1 µM
[35] = second compound 1 µM, first compound 0.316 µM
[36] = second compound 1 µM, first compound 1 µM
[37] = second compound 1 µM, first compound 3.16 µM
[38] = second compound 3.16 µM, first compound 0.1 µM
[39] = second compound 3.16 µM, first compound 0.316 µM
[40] = second compound 3.16 µM, first compound 1 µM
[41] = second compound 3.16 µM, first compound 3.16 µM
[42] = second compound 10 µM, first compound 0.1 µM
[43] = second compound 10 µM, first compound 0.316 µM
[44] = second compound 10 µM, first compound 1 µM
[45] = second compound 10 µM, first compound 3.16 µM
[46] = second compound 0.1 µM, first compound 10 µM
[47] = second compound 0.316 µM, first compound 10 µM
[48] = second compound 1 µM, first compound 10 µM
[49] = second compound 3.16 µM, first compound 10 µM
[50] = second compound 10 µM, first compound 10 µM
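Also: spheroids exposed to compounds for 7 days.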
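For viability, T/C in this document: 100% = DMSO vehicle control viability.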

CC(=O)Nc1cccc(-n2c(=O)n(C3CC3)c(=O)c3c(Nc4ccc(I)cc4F)n(C)c(=O)c(C)c32)c1 + CNCc1ccccc1-c1csc(C(C)Nc2nc(C)nc3cc(OC)c(OC)cc23)c1
IC50 (second compound 0.1 µM): 23.9 nM
IC50 (second compound 0.316 µM): 27.5 nM
IC50 (second compound 1 µM): 17.1 nM
IC50 (second compound 3.16 µM): < 0.1 nM
IC50 (second compound 10 µM): < 0.1 nM
viability, T/C (second compound 0.1 µM, first compound 0.0001 µM): 89.5%
viability, T/C [1]: 107%
viability, T/C [2]: 108%
viability, T/C [3]: 107%
viability, T/C [4]: 92.9%
viability, T/C [5]: 35.7%
viability, T/C (second compound 0.316 µM, first compound 0.0001 µM): 88.3%
viability, T/C [6]: 97.9%
viability, T/C [7]: 105%
viability, T/C [8]: 108%
viability, T/C [9]: 106%
viability, T/C [10]: 42.9%
viability, T/C (second compound 1 µM, first compound 0.0001 µM): 96.1%
viability, T/C [11]: 98.2%
viability, T/C [12]: 112%
viability, T/C [13]: 92.2%
viability, T/C [14]: 78.5%
viability, T/C [15]: 18.1%
viability, T/C (second compound 3.16 µM, first compound 0.0001 µM): 28.4%
viability, T/C [16]: 51.9%
viability, T/C [17]: 16.4%
viability, T/C [18]: 0.36%
viability, T/C [19]: 0.15%
viability, T/C [20]: 0.26%
viability, T/C (second compound 10 µM, first compound 0.0001 µM): 0.16%
viability, T/C [21]: 0.14%
viability, T/C [22]: 0.13%
viability, T/C [23]: 0.11%
viability, T/C [24]: 0.12%
viability, T/C [25]: 0.17%

CC(=O)OC12COC1CC(O)C1(C)C(=O)C(O)C3=C(C)C(OC(=O)C(O)C(NC(=O)OC(C)(C)C)c4ccccc4)CC(O)(C(OC(=O)c4ccccc4)C21)C3(C)C (stereo not given) + CNCc1ccccc1-c1csc(C(C)Nc2nc(C)nc3cc(OC)c(OC)cc23)c1
IC50 (second compound 0.1 µM): < 10 nM
IC50 (second compound 0.316 µM): < 10 nM
IC50 (second compound 1 µM): < 10 nM
IC50 (second compound 3.16 µM): < 10 nM
IC50 (second compound 10 µM): < 10 nM
viability, T/C [4]: 21.7%
viability, T/C [5]: 14.4%
viability, T/C [26]: 17.6%
viability, T/C [27]: 15.7%
viability, T/C [28]: 18.1%
viability, T/C [29]: 23.4%
viability, T/C [9]: 17.2%
viability, T/C [10]: 10.2%
viability, T/C [30]: 11.7%
viability, T/C [31]: 11.5%
viability, T/C [32]: 14.3%
viability, T/C [33]: 18.6%
viability, T/C [14]: 12.6%
viability, T/C [15]: 17.5%
viability, T/C [34]: 11.6%
viability, T/C [35]: 13%
viability, T/C [36]: 15.5%
viability, T/C [37]: 16.2%
viability, T/C [19]: 0.14%
viability, T/C [20]: 15.2%
viability, T/C [38]: 1.18%
viability, T/C [39]: 0.07%
viability, T/C [40]: 0.57%
viability, T/C [41]: 24.8%
viability, T/C [24]: 2.23%
viability, T/C [25]: 1.24%
viability, T/C [42]: 0.96%
viability, T/C [43]: 0.12%
viability, T/C [44]: 0.12%
viability, T/C [45]: 0.18%

CN(C)C/C=C/C(=O)Nc1cc2c(Nc3ccc(F)c(Cl)c3)ncnc2cc1O[C@H]1CCOC1 + CNCc1ccccc1-c1csc(C(C)Nc2nc(C)nc3cc(OC)c(OC)cc23)c1
IC50 (second compound 0.1 µM): > 100 nM
IC50 (second compound 0.316 µM): > 100 nM
IC50 (second compound 1 µM): > 100 nM
IC50 (second compound 3.16 µM): > 100 nM
IC50 (second compound 10 µM): < 0.316 nM
viability, T/C [1]: 103%
viability, T/C [2]: 92.3%
viability, T/C [3]: 98%
viability, T/C [4]: 113%
viability, T/C [5]: 88.8%
viability, T/C [26]: 106%
viability, T/C [6]: 123%
viability, T/C [7]: 108%
viability, T/C [8]: 107%
viability, T/C [9]: 105%
viability, T/C [10]: 99.3%
viability, T/C [30]: 92.4%
viability, T/C [11]: 110%
viability, T/C [12]: 101%
viability, T/C [13]: 89.5%
viability, T/C [14]: 107%
viability, T/C [15]: 108%
viability, T/C [34]: 106%
viability, T/C [16]: 128%
viability, T/C [17]: 113%
viability, T/C [18]: 107%
viability, T/C [19]: 1.05%
viability, T/C [20]: 130%
viability, T/C [38]: 104%
viability, T/C [21]: 1.54%
viability, T/C [22]: 0.37%
viability, T/C [23]: 0.43%
viability, T/C [24]: 1.89%
viability, T/C [25]: 1.87%
viability, T/C [42]: 2.49%

COC(=O)c1ccc2c(C(=Nc3ccc(N(C)C(=O)CN4CCN(C)CC4)cc3)c3ccccc3)c(O)[nH]c2c1 + CNCc1ccccc1-c1csc(C(C)Nc2nc(C)nc3cc(OC)c(OC)cc23)c1
IC50 (second compound 0.1 µM): 567 nM
IC50 (second compound 0.316 µM): 1180 nM
IC50 (second compound 1 µM): 910 nM
IC50 (second compound 3.16 µM): < 31.6 nM
IC50 (second compound 10 µM): < 31.6 nM
viability, T/C [5]: 84.2%
viability, T/C [26]: 82.4%
viability, T/C [27]: 77.7%
viability, T/C [28]: 23.2%
viability, T/C [29]: 0.18%
viability, T/C [46]: 0.19%
viability, T/C [10]: 62%
viability, T/C [30]: 86.3%
viability, T/C [31]: 97.5%
viability, T/C [32]: 58.4%
viability, T/C [33]: 0.13%
viability, T/C [47]: 0.2%
viability, T/C [15]: 75.7%
viability, T/C [34]: 78.2%
viability, T/C [35]: 87%
viability, T/C [36]: 47.3%
viability, T/C [37]: 0.9%
viability, T/C [48]: 0.21%
viability, T/C [20]: 23%
viability, T/C [38]: 38.6%
viability, T/C [39]: 0.57%
viability, T/C [40]: 0.22%
viability, T/C [41]: 0.13%
viability, T/C [49]: 0.21%
viability, T/C [25]: 2.62%
viability, T/C [42]: 0.25%
viability, T/C [43]: 1.09%
viability, T/C [44]: 0.18%
viability, T/C [45]: 0.17%
viability, T/C [50]: 0.26%

COc1cc(Nc2ncc3c(n2)-c2ccc(Cl)cc2C(c2c(F)cccc2OC)=NC3)ccc1C(=O)O + CNCc1ccccc1-c1csc(C(C)Nc2nc(C)nc3cc(OC)c(OC)cc23)c1
IC50 (second compound 0.1 µM): > 10000 nM
IC50 (second compound 0.316 µM): > 10000 nM
IC50 (second compound 1 µM): > 10000 nM
IC50 (second compound 3.16 µM): < 31.6 nM
IC50 (second compound 10 µM): < 31.6 nM
viability, T/C [5]: 95.3%
viability, T/C [26]: 178%
viability, T/C [27]: 165%
viability, T/C [28]: 150%
viability, T/C [29]: 167%
viability, T/C [46]: 155%
viability, T/C [10]: 132%
viability, T/C [30]: 145%
viability, T/C [31]: 124%
viability, T/C [32]: 140%
viability, T/C [33]: 147%
viability, T/C [47]: 134%
viability, T/C [15]: 108%
viability, T/C [34]: 123%
viability, T/C [35]: 159%
viability, T/C [36]: 156%
viability, T/C [37]: 142%
viability, T/C [48]: 120%
viability, T/C [20]: 0.27%
viability, T/C [38]: 2.41%
viability, T/C [39]: 15.8%
viability, T/C [40]: 0.43%
viability, T/C [41]: 0.37%
viability, T/C [49]: 4.13%
viability, T/C [25]: 0.16%
viability, T/C [42]: 0.15%
viability, T/C [43]: 0.17%
viability, T/C [44]: 0.16%
viability, T/C [45]: 0.17%
viability, T/C [50]: 0.22%

O=C(c1cc(Cc2n[nH]c(=O)c3ccccc23)ccc1F)N1CCN(C(=O)C2CC2)CC1 + CNCc1ccccc1-c1csc(C(C)Nc2nc(C)nc3cc(OC)c(OC)cc23)c1
IC50 (second compound 0.1 µM): > 10000 nM
IC50 (second compound 0.316 µM): > 10000 nM
IC50 (second compound 1 µM): > 10000 nM
IC50 (second compound 3.16 µM): < 31.6 nM
IC50 (second compound 10 µM): < 31.6 nM
viability, T/C [5]: 102%
viability, T/C [26]: 90.9%
viability, T/C [27]: 81.1%
viability, T/C [28]: 88.5%
viability, T/C [29]: 78.6%
viability, T/C [46]: 61.2%
viability, T/C [10]: 90.8%
viability, T/C [30]: 87.2%
viability, T/C [31]: 92.6%
viability, T/C [32]: 87.7%
viability, T/C [33]: 77.9%
viability, T/C [47]: 97.6%
viability, T/C [15]: 112%
viability, T/C [34]: 90.3%
viability, T/C [35]: 87.8%
viability, T/C [36]: 91.1%
viability, T/C [37]: 104%
viability, T/C [48]: 111%
viability, T/C [20]: 9.5%
viability, T/C [38]: 28.8%
viability, T/C [39]: 40.8%
viability, T/C [40]: 15.5%
viability, T/C [41]: 1.24%
viability, T/C [49]: 2.36%
viability, T/C [25]: 0.23%
viability, T/C [42]: 0.27%
viability, T/C [43]: 0.26%
viability, T/C [44]: 0.23%
viability, T/C [45]: 0.19%
viability, T/C [50]: 0.27%
